Patent US11234967B2, “Use of 3-[5-amino-4-(3-cyanobenzoyl)-pyrazol-1-yl]-n-cyclopropyl-4-methylbenzamide in the prevention or reduction of acute exacerbations of chronic obstructive pulmonary disease” (MEREO BIOPHARMA 1 LIMITED, priority 2017, dated 2022)

Assays:
fibrinogen = assay: AETHER Phase 2 trial: fibrinogen blood concentration; assay type: in vivo, human; conditions: high and low dose over 5 days; to Day 14; including <2% eosinophils; maximal at Day 7; FIG. 13
Text: (§1) A Phase 2 trial (referred to as AETHER) was a double-blind, randomised, placebo-controlled clinical study investigating the use of BCT-197, on top of Standard of Care, for the treatment of patients with AECOPD. Standard of Care included the addition of steroids and/or antibiotics to a patient's chronic COPD medication and symptomatic bronchodilators. Following baseline assessment, 282 eligible patients were randomised to receive either two different dose regimens of BCT-197 or placebo (three doses over five days). The primary endpoint was a comparison of change in forced expiratory volume in 1 second (FEV1) from baseline to day 7 within each arm of the study.
(§2) A further exploratory outcome included over the treatment period to Day 5 and BCT197 systemic exposure (to Day 14) were the inflammatory biomarkers high sensitivity C-Reactive Protein (hsCRP) and fibrinogen measured in patient blood. […] This was maximal at Day 7 (FIGS. 12 and 13) coincident with the highest improvement in FEV1 (FIG. 11) in response to BCT197 in the same patient population with <2% eosinophils.

AECOPD = conditions: single oral dose; cited from earlier work
patients with AECOPD = assay: AETHER Phase 2 trial: change in FEV1 from baseline to Day 7; assay type: in vivo, human; conditions: for FEV1 change from baseline to Day 7, sub-group with blood eosinophils <2%: on top of standard of care, compared to other sub-groups and placebo, FIGS. 10, 11
Text: as §1
The trial assessed adult patients≥40 years with an acute exacerbation of COPD (as defined by increase in symptoms of cough, and/or sputum and/or breathlessness that required addition of antibiotics and or systemic corticosteroids to their regular treatment).
Patients received one of two oral dosing regimens of 3-[5-amino-4-(3-cyanobenzoyl)-pyrazol-1-yl]-N-cyclopropyl-4-methylbenzamide or matching oral placebo administered according to the dosing schedules shown in Table 2.
Inclusion criteria for the study population were: • Males/females≥40 • On regular treatment for COPD (categories C and D by 2015 GOLD guidelines) • Presence of an active exacerbation of the ongoing COPD requiring hospitalisation for treatment: • At least one moderate or severe COPD exacerbation in the preceding 12 months • Smoking history of at least 10 pack years • FEV1<65% of the predicted normal value […]
Efficacy of treatment was measured by the primary endpoint of change in FEV1 from baseline (before treatment) to Day 7. Patients with COPD and low eosinophils (determined by blood percentages or absolute counts) are considered to be poorly responsive to treatment of acute exacerbations using known treatments.

[1] = tested on: high sensitivity C-Reactive Protein (hsCRP); assay: AETHER Phase 2 trial: hsCRP blood concentration; assay type: in vivo, human
Text: as §1, with “either one of” for “either”, “days).” for “days). The primary endpoint was a comparison of change in forced expiratory volume in 1 second (FEV1) from baseline to day 7 within each arm of the study.”
Inflammatory biomarkers are related to disease outcomes (Barnes and Celli, Eur Respir J, 2009, 33, pp 1165-1185; Bourdin et al., Eur Respir Rev, 2009, 18, pp 198-212) and are central to the proposed mechanism of action for BCT197. A further exploratory outcome was included out to 6 months, namely the inflammatory biomarker high sensitivity C-Reactive Protein (hsCRP) measured in patients. […] This is supportive that treatment in accordance with the invention leads to a reduction in re-hospitalisations and non-hospitalised exacerbations over this period through long term reduction in inflammation.
After the acute treatment period, the hsCRP remains lower in those who had received BCT197 compared to placebo to Day 180 (p value<0.05) without additional dosing of BCT197, supporting a prolonged pharmacology effect on inflammation by BCT197.
as §2

[2] = tested on: lymphocytes and neutrophils; assay: AETHER Phase 2 trial: % lymphocytes and neutrophils in blood; assay type: in vivo, human
Text: as §1, with “either one of” for “either”, “days).” for “days). The primary endpoint was a comparison of change in forced expiratory volume in 1 second (FEV1) from baseline to day 7 within each arm of the study.”
Systemic markers of adaptive and innate immunity are predictive of disease progression in COPD. […] Consequently, the effect of BCT197 to rebalance these biomarkers to a healthier phenotype, including beyond the period of systemic drug exposure, supports the potential benefit of the dosing regimens of the present invention.

[3] = tested on: acute exacerbations of COPD; assay: AETHER Phase 2 trial: occurrence of new acute exacerbations of COPD / re-hospitalisation out to 6 months; assay type: in vivo, human
Text: A Phase 2 trial (referred to as […]) was a double-blind, randomised, placebo-controlled clinical study investigating the use of BCT-197, on top of Standard of Care, for the treatment of patients with AECOPD. Standard of Care included the addition of steroids and/or antibiotics to a patient's chronic COPD medication and symptomatic bronchodilators. Following baseline assessment, 282 eligible patients were randomised to receive either one of two different dose regimens of BCT-197 or placebo (three doses over five days). The trial assessed adult patients ≥40 years with an acute exacerbation of COPD (as defined by increase in symptoms of cough, and/or sputum and/or breathlessness that required addition of antibiotics and or systemic corticosteroids to their regular treatment). The dosing regimen of 3-[5-amino-4-(3-cyanobenzoyl)-pyrazol-1-yl]-N-cyclopropyl-4-methylbenzamide or matching oral placebo administered are shown in Table 1. [table] BCT197 or placebo was added on top of the standard of care for the exacerbation. Exploratory long term outcomes after the acute treatment were included out to 6 months. […] Inclusion criteria for the study population were: • Males/females≥40 • On regular treatment for COPD (categories C and D by 2015 GOLD guidelines) • Presence of an active exacerbation of the ongoing COPD requiring hospitalisation for treatment: • At least one moderate or severe COPD exacerbation in the preceding 12 months • Smoking history of at least 10 pack years • FEV1<65% of the predicted normal value Exclusion criteria for the study population were: • Current diagnosis of asthma • Treatment with systemic corticosteroids or antibiotics in the prior 4 weeks. • Requiring intensive care unit treatment • Clinically significant cardiovascular condition of clinically significant ECG abnormality • Concurrent pneumonia, pulmonary embolus or pneumothorax

Cc1ccc(C(=O)NC2CC2)cc1-n1ncc(C(=O)c2cccc(C#N)c2)c1N [BCT197, 3-[5-amino-4-(3-cyanobenzoyl)-pyrazol-1-yl]-N-cyclopropyl-4-methylbenzamide]
fibrinogen from baseline versus placebo (fibrinogen): dose-dependent reduction | recovery of AECOPD to the stable disease state (AECOPD): accelerates the recovery to the stable disease state | FEV1: relative difference to standard of care, >2% eosinophil sub-population (patients with AECOPD; FIG. 10 right hand side): much less than in the low eosinophil group | FEV1 change from baseline to Day 7, sub-group with blood eosinophils <2% (patients with AECOPD): substantial and consistent improvement in FEV1 | FEV1 change from baseline to Day 7, sub-group with blood eosinophils <2% (patients with AECOPD; listed as compound A): significant improvement | hsCRP for the subsequent 6 months versus placebo ([1]; both high and low dose over 5 days, both high and low eosinophil sub group, FIGS. 4 and 5): sustained and durable reduction in hsCRP | hsCRP from baseline versus placebo ([1]; high and low dose over 5 days, to Day 14, including <2% eosinophils, maximal at Day 7, FIG. 12): dose-dependent reduction | decrease in hsCRP to day 7 during acute treatment compared to placebo ([1]; high dose, combined Eos>2% and <2%, p<0.05 at Day 3, 7 and 10, FIG. 6): significantly greater | hsCRP after the acute treatment period compared to placebo ([1]; high dose, to Day 180 without additional dosing, p value<0.05, FIG. 6): remains lower | change from baseline in % neutrophils during acute treatment ([2]; high and low dose vs placebo, greater than placebo with dose-dependent effect, FIG. 8): rapid decrease in % neutrophils | change from baseline in % lymphocytes over the acute treatment period ([2]; high and low dose vs placebo, to Day 14, FIG. 7): dose-dependent increase in lymphocytes | reduction in % neutrophils compared to placebo to Day 56 ([2]; without additional dosing, FIG. 9): remains greater | re-hospitalisation for COPD ([3]; both high and low dose over 5 days, subsequent 6 months, high eosinophil sub group (Eos>2%), vs placebo, FIG. 3): able to reduce re-hospitalisation for COPD | reduction of occurrence of new exacerbations that require hospitalisation ([3]; high dose (75/40/40 mg, days 1, 3, 5) on top of standard of care, subsequent 6 months, vs placebo, FIG. 1): 40-60% | period of greatest effect on new exacerbations that require hospitalisation ([3]; high dose, based on numerical difference to placebo and statistical significance): between 3 and 4 months | recurrent exacerbations that were not hospitalised ([3]; short course of high dose, FIG. 2): reductions
